For experiment [1], the target named is T1, Endothelin-converting enzyme 1 (Homo sapiens, UniProt P42892).
T1 sequence (P42892 whole entry): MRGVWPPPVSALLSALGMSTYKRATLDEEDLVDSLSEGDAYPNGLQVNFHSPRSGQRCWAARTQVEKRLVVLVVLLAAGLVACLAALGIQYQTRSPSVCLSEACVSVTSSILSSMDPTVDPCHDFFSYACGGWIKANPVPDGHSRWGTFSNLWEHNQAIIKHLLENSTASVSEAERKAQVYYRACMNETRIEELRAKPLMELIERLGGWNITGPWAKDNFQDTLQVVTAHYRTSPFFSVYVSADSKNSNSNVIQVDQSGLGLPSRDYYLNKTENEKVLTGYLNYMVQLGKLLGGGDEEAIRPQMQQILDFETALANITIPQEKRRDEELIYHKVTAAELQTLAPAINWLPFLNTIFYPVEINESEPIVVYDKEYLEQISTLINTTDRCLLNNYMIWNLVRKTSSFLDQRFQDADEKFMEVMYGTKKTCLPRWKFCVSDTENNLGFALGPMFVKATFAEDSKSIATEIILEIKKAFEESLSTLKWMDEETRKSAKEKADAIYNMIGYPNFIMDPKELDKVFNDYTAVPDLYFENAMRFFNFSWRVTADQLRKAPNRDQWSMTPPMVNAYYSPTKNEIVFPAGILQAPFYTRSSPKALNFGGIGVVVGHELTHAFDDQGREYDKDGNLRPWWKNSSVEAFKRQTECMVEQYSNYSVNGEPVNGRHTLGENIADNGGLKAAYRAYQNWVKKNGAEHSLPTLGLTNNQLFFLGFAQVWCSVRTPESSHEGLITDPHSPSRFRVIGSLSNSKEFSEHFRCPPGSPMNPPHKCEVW
The experiment can be described thus: Concentration required to inhibit conversion of […] after deprotection and purification by reverse-phase HPLC. It counts as functional.

Experiment [2] is described as follows: Inhibitory activity against thermolysin induced by big ET-1 which inhibited hypertensive effect; active. Type of experiment: functional.

Active and inactive are the calls of the source. No cut-off for these calls is given here.

The molecule `CC(C)C[C@H](NP1(=O)OC(C)C(O)C(O)C1O)C(=O)N[C@@H](Cc1c[nH]c2ccccc12)C(=O)O` (some centres not stated) showed a concentration for half-maximal inhibition (IC50) in experiment [1] of 5.05 µM.

Regarding `CC(C)C[C@H](NP(=O)(O)OC1OC(C)C(O)C(O)C1O)C(=O)N[C@@H](Cc1c[nH]c2ccccc12)C(=O)O` (some centres not stated), the Inhibitory activity result in experiment [2] is “Active”.

These data come from ChEMBL document CHEMBL1132090, “Synthesis of a phostone glycomimetic of the endothelin converting enzyme inhibitor phosphoramidon” (Bioorg Med Chem Lett, 1999).
